The values that follow come from ChEMBL document CHEMBL4406826, “Discovery of δ-sultone-fused pyrazoles for treating Alzheimer's disease: Design, synthesis, biological evaluation and SAR studies” (Eur J Med Chem, 2019).

SMILES strings stand for the structures. The source made the active and inactive calls. Unless noted, the rule behind the calls is not given here.

Series [1] addresses T1, Cholinesterase (Equus caballus, UniProt P81908). The series can be described thus: Inhibition of equine serum BuChE using butyrylthiocholine iodide as substrate preincubated with enzyme for 20 mins followed by substrate addition by Ellman's method.
In series [2] the test system is PC-12. The series can be described thus: Neuroprotective activity against H2O2-induced cytotoxicity in rat PC12 cells assessed as increase in cell viability at 10 to 25 uM pretreated for 3 hrs followed by H2O2 stimulation in continuous presence of compound for 24 hrs by MTT assay relative to control. The series is classed as functional. In general terms: Tetrazolium dyes change colour on reduction, which living cells bring about.

In series [3] the target is Cholinesterase (Equus caballus) (UniProt P81908). Kind of series: Non-competitive inhibition of equine serum BChE at 1 to 5 uM using varying levels of butyrylcholine iodide as substrate by Line weaver Burk reciprocal plot analysis.
Series [4] is described as follows: Octanol-PBS buffer partition coefficient, log P of the compound incubated for 24 hrs measured at pH 7.4 by shake-flask method. Type of series: physicochemical.
Series [5] can be described thus: Cytotoxicity against rat PC12 cells assessed as cell viability at 5 to 50 uM measured after 24 hrs by MTT assay. The series is classed as cell-based, PC-12. The note with it: read-out: Activity.
Series [6] has as its target Acetylcholinesterase (Electrophorus electricus) (UniProt O42275). Kind of series: Inhibition of electric eel AChE at 20 uM using acetylthiocholine iodide as substrate preincubated with enzyme for 20 mins followed by substrate addition by Ellman's method relative to control.
Series [7] concerns the target T1, Cholinesterase. The series can be described thus: Inhibition of equine serum BChE using varying levels of butyrylthiocholine iodide as substrate by Line weaver Burk reciprocal plot analysis.
The target in series [8] is Cholinesterase (Equus caballus) (UniProt P81908). The series can be described thus: Mixed inhibition of equine serum BChE assessed as decrease in Vmax at 1 to 5 uM using varying levels of butyrylthiocholine iodide as substrate by Line weaver Burk reciprocal plot analysis.
Series [9] in a line: Cytotoxicity against human HepG2 cells assessed as cell viability at 5 to 50 uM measured after 24 hrs by MTT assay. Type of series: cell-based. The following applies: read-out: Activity.
The target of series [10] is Cholinesterase (Equus caballus) (UniProt P81908). The series can be described thus: Mixed inhibition of equine serum BChE assessed as increase in substrate Km at 1 to 5 uM using varying levels of butyrylthiocholine iodide as substrate by Line weaver Burk reciprocal plot analysis.
The target is the same in series [11]. The series can be described thus: Reversible inhibition of equine serum BChE at 0.4 to 1 uM using varying levels of butyrylcholine iodide as substrate.
Series [12] has the same target. Kind of series: Mixed inhibition of equine serum BChE assessed as decrease in Vmax at 0.5 to 2 uM using varying levels of butyrylthiocholine iodide as substrate by Line weaver Burk reciprocal plot analysis.
For series [13] the target is unchanged. Kind of series: Mixed inhibition of equine serum BChE assessed as increase in substrate Km at 0.5 to 2 uM using varying levels of butyrylthiocholine iodide as substrate by Line weaver Burk reciprocal plot analysis.

T1 sequence (P81908 whole entry): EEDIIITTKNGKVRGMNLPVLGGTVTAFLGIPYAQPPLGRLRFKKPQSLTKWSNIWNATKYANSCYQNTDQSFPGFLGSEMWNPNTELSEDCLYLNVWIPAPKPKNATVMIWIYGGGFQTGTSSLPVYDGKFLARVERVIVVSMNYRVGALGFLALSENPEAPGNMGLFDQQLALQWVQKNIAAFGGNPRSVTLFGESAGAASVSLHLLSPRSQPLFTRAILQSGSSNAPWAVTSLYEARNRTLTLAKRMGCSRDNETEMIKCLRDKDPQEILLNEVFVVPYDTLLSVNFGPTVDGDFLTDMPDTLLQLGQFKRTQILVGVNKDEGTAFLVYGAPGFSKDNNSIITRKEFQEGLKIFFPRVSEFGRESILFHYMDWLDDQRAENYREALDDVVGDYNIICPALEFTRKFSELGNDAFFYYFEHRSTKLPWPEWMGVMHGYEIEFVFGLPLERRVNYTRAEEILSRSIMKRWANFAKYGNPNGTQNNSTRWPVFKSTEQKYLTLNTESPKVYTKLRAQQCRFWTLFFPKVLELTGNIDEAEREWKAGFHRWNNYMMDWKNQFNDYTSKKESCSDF
Chain of Cholinesterase (Equus caballus) (P81908 whole entry): as above
Chain of Acetylcholinesterase (Electrophorus electricus) (O42275 24-633 limits assumed): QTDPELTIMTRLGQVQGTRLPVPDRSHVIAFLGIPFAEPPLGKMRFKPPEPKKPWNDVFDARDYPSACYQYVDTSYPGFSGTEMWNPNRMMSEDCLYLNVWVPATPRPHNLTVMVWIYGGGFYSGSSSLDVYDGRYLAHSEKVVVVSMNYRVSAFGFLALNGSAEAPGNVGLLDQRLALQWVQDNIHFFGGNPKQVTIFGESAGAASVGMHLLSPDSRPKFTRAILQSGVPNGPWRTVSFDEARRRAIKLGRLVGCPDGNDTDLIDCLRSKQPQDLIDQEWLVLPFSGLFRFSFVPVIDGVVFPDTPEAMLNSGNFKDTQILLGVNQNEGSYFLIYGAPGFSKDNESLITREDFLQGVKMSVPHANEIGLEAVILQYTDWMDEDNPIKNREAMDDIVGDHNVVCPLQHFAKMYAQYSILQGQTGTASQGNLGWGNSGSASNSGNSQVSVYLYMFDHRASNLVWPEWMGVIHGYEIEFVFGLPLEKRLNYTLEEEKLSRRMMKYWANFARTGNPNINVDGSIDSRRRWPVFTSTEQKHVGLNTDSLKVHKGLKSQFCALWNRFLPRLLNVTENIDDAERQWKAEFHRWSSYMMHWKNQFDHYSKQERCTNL

One may read the IC50 as the point on the concentration scale where inhibition reaches its midpoint. A low value points to inhibition by little substance. For orientation: logD means lipophilicity at a set pH, counting ionised and neutral species. A lower logD goes with lower lipophilicity. Usually Ki stands for a measure of affinity in units of concentration, obtained from inhibition or displacement. The low end stands for a stronger hold on the target, the high end for a looser hold on the target. Consider `COc1ccc(-c2nn(-c3ccccc3Cl)c3c2CCS(=O)(=O)O3)cc1`, for which it took 420 nM to reach half-maximal inhibition in [1] (IC50). Further, in series [2], the Activity was more than 70%. The inhibition entry in series [3], in series [8] and in series [10] was “Active” each time. Besides, in [4], the logD at 24 h was 3.04. Moreover, the viability at 24 h, up to 50 µM in series [5] was more than 90%. Besides, the inhibition entry in series [6] was “inactive”. This compound also came in with a Ki in series [7] of 60 nM. Further, the viability at 24 h, 50 µM in series [9] is more than 90%.
`COc1ccc(-c2nn(-c3ccccc3F)c3c2CCS(=O)(=O)O3)cc1`: the inhibition result in series [11], in series [12] and in series [13] was “Active” throughout. Also, the IC50 in series [1] is 460 nM. Also, the Activity in series [2] is recorded as more than 70%. The compound also returned a logD at 24 h in series [4] of 2.62. The viability at 24 h, up to 50 µM in series [5] was more than 90%. Moreover, in series [6], the inhibition result is “inactive”. In series [7], this compound gave a Ki of 145 nM. The viability at 24 h, 50 µM in series [9] was more than 90%.
